Results: US10975068B2, “6-aminopyridin-3-yl thiazoles as modulators of RORγT” (Janssen Pharmaceutica NV, priority 2016, dated 2021)
Like-named read-outs stand apart in the source and are kept apart here.

What was measured:
full-length human RORγt = full-length human RORγt (Homo sapiens (Human), UniProt P51449); experiment: RORγt (full-length human) reporter assay, Conditions B or C; format: cell-based; settings: for RORγt (FL) Reporter Assay B or C, % inhibition (value marked *): marked *: footnote not given; for IC50: read-out: RORγt (FL) Reporter Assay B or C, IC50; for inhibition at 3 µM: at 3 μM compound concentration, read-out: RORγt (FL) Reporter Assay B or C, % inhibition
Sequence of full-length human RORγt (P51449 other isoform, or with tags, fused parts or gaps): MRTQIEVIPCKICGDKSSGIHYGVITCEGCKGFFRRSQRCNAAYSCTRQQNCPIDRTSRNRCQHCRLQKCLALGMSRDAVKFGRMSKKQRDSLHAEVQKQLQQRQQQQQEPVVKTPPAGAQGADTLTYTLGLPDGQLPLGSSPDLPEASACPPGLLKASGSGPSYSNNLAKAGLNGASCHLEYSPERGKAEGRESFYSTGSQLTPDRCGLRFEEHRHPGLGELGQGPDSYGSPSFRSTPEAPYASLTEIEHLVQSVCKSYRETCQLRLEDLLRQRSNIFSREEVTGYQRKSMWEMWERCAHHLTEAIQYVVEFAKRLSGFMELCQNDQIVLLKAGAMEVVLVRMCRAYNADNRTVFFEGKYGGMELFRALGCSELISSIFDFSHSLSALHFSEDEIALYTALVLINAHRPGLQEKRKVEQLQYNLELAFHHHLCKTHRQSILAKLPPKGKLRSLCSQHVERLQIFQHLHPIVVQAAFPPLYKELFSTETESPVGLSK
Excerpt: RORγt (Full-Length Human) Reporter Assay:
Cells used in this assay were transiently co-transfected with three different plasmids, one expressing the GAL4-DNA binding domain (DBD)-RORγt fusion protein under control of a CMV promoter (NH2-Gal4-DBD:RORC-COOH in pCMV-BD, Stratagene #211342), and two reporter plasmids—the firefly luciferase reporter under control of a GAL4 promoter (pFR-Luc 2×GAL4) and Renilla luciferase reporter under control of CMV promoter (pRL-CMV, Promega # E2261). The full-length coding sequence was used for human RORγt, i.e., nucleotides 142-1635 of human RORγt, transcript variant 2, NCBI Accession: NM_001001523.1 (SEQ ID NO:1). HEK293T cells were plated at 35,000 per well in 96-well plate in medium of DMEM with 10% FBS. After 18-22 hours incubation, the transfection was carried out by using a PEI solution with 170.5 ng total DNA/well (50 ng pCMV-BD-ROR plus 20 ng of pFR-Luc reporter and 0.5 ng of pRL-CMV reporter plus 100 ng Carrier DNA (Clontech #630440) for each well). 4-6 hours after transfection, cells were treated with compounds for overnight in the medium with final concentration of FBS 1.3% and DMSO 0.1%. After overnight (16 to 20 hours) incubation, media were removed and cells were lysed with 50 μL Glo Lysis Buffer (Promega) for 10-15 minutes followed by 10 minute incubation with 50 μL Dual Glo reagent (Promega) at room temperature. Firefly luciferase luminescence was measured using a BMG Pherastar plate reader. To each well, 50 μL Stop and Glo reagent was added and incubated for 10 minutes at room temperature. Renilla luminescence was measured using a BMG Pherastar plate reader. To calculate the effect of compounds on RORγt activity, firefly values were normalized against values of DMSO only and values of reference compound at saturating concentration, then further normalized against Renilla signals. IC50s were generated by plotting final Renilla normalized data against compound concentration and percent inhibition was calculated against DMSO control.
Cells used in this assay were transiently co-transfected with three different plasmids, one expressing the GAL4-DNA binding domain (DBD)-RORγt fusion protein under control of a CMV promoter (NH2-Gal4-DBD:RORC-COOH in pCMV-BD, Stratagene #211342), and two reporter plasmids—the firefly luciferase reporter under control of a GAL4 promoter (pFR-Luc 2×GAL4) and Renilla luciferase reporter under control of CMV promoter (pRL-CMV, Promega # E2261). The full-length coding sequence was used for human RORγt, i.e., nucleotides 142-1635 of human RORγt, transcript variant 2, NCBI Accession: NM_001001523.1 (SEQ ID NO:1). HEK293T cells were plated at 8750 cells per well in 384-well plate in medium of DMEM with 10% FBS. After 18-22 hours incubation, the transfection was carried out by using a PEI solution with 42.6 ng total DNA/well (12.5 ng pCMV-BD-ROR plus 5 ng of pFR-Luc reporter and 0.125 ng of pRL-CMV reporter plus 25 ng Carrier DNA (Clontech #630440) for each well). 4-6 hours after transfection, cells were treated with compounds for overnight in the medium with final concentration of FBS 1.3% and DMSO 0.1%. After overnight (16 to 20 hours) incubation, media were removed and cells were lysed with 20 μL Glo Lysis Buffer (Promega) for 10-15 minutes followed by 10 minute incubation with 20 μL Dual Glo reagent (Promega) at room temperature. Firefly luciferase luminescence was measured using a BMG Pherastar plate reader. To each well, 20 μL Stop and Glo reagent was added and incubated for 10 minutes at room temperature. Renilla luminescence was measured using a BMG Pherastar plate reader. To calculate the effect of compounds on RORγt activity, firefly values were normalized against values of DMSO only and values of reference compound at saturating concentration, then further normalized against Renilla signals.

[1] = target: human RORγt ligand binding domain (RORγt LBD) (Homo sapiens (Human), UniProt P51449); experiment: RORγt ThermoFluor® assay (thermal shift binding); settings: read-out: ThermoFluor® Assay, Kd
Sequence of human RORγt ligand binding domain (RORγt LBD) (P51449 other isoform, or with tags, fused parts or gaps): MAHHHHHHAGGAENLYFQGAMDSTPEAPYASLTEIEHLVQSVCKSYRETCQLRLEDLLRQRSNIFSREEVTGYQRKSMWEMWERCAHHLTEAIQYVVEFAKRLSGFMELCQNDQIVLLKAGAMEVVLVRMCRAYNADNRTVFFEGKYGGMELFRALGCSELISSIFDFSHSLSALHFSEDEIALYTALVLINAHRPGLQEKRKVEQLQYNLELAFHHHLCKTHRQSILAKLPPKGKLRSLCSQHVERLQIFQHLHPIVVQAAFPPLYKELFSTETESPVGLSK
Excerpt: ThermoFluor® is a fluorescence based assay that estimates ligand binding affinities by measuring the effect of a ligand on protein thermal stability (Pantoliano, M. W., Petrella, E. C., Kwasnoski, J. D., Lobanov, V. S., Myslik, J., Graf, E., Carver, T., Asel, E., Springer, B. A., Lane, P., and Salemme, F. R. (2001) High-density miniaturized thermal shift assays as a general strategy for drug discovery. J Biomol Screen 6, 429-40, and Matulis, D., Kranz, J. K., Salemme, F. R., and Todd, M. J. (2005) Thermodynamic stability of carbonic anhydrase: measurements of binding affinity and stoichiometry using ThermoFluor. Biochemistry 44, 5258-66). This approach is applicable to a wide variety of systems, and rigorous in theoretical interpretation through quantitation of equilibrium binding constants (KD).
The shift in the melting point described as a ΔTm is proportional to the concentration and affinity of the ligand. The compound potency may be compared as a rank order of either ΔTm values at a single compound concentration or in terms of KD values, estimated from concentration response curves.
RORγt ThermoFluor® Assay Construct
For the RORγt construct used in the ThermoFluor® assay, numbering for the nucleotide sequences was based on the reference sequence for human RORγt, transcript variant 2, NCBI Accession: NM_001001523.1 (SEQ ID NO:1). Nucleotides 850-1635 (SEQ ID NO:2) coding for the wild type human RORγt ligand binding domain (RORγt LBD) were cloned into the pHIS1 vector, a modified pET E. coli expression vector (Accelagen, San Diego), containing an in-frame N-terminal His-tag and a TurboTEV protease cleavage site (ENLYFQG, SEQ ID NO:3) upstream of the cloned insert sequence. The amino acid sequence for the RORγt construct used in the Thermofluor® assay is shown as SEQ ID NO:4.
ThermoFluor® experiments were carried out using instruments owned by Janssen Research and Discovery, L.L.C. through its acquisition of 3-Dimensional Pharmaceuticals, Inc. 1,8-ANS (Invitrogen) was used as a fluorescent dye. Protein and compound solutions are dispensed into black 384-well polypropylene PCR microplates (Abgene) and overlayed with silicone oil (1 μL, Fluka, type DC 200) to prevent evaporation.
Bar-coded assay plates are robotically loaded onto a thermostatically controlled PCR-type thermal block and then heated at a typical ramp-rate of 1° C./min for all experiments. Fluorescence was measured by continuous illumination with UV light (Hamamatsu LC6) supplied via fiber optic and filtered through a band-pass filter (380-400 nm; >6 OD cutoff). Fluorescence emission of the entire 384-well plate was detected by measuring light intensity using a CCD camera (Sensys, Roper Scientific) filtered to detect 500±25 nm, resulting in simultaneous and independent readings of all 384 wells. Images were collected at each temperature, and the sum of the pixel intensity in a given area of the assay plate was recorded versus temperature. Reference wells contained RORγt without compounds, and the assay conditions were as follows: • 0.065 mg/mL RORγt • 60 μM 1,8-ANS • 100 mM Hepes, pH 7.0 • 10 mM NaCl • 2.5 mM GSH • 0.002% Tween-20
Project compounds were arranged in a pre-dosed mother plate (Greiner Bio-one) wherein compounds are serially diluted in 100% DMSO by 1:2 from a high concentration of 10 mM over 12 columns within a series (column 12 is a reference well containing DMSO, no compound). The compounds were robotically dispensed directly into assay plates (×=46 nL) using a Hummingbird capillary liquid handling instrument (Digilab). Following compound dispense, protein and dye in buffer was added to achieve the final assay volume of 3 μL, followed by 1 μL of silicone oil.

inhibition at 3 µM (full-length human RORγt)	IC50 (full-length human RORγt)	Structure (SMILES)	RORγt (FL) Reporter Assay B or C, % inhibition (value marked *) (full-length human RORγt; Conditions B or C)	IC50 (full-length human RORγt; Conditions B or C)	Kd [1]
–	–	CC(C)(O)CNC(=O)c1nc(C(=O)N2C3CCC2CC3)c(-c2cnc(NC(C3CC3)C3CC3)cc2C(F)(F)F)s1 [Example 137, 4-((1s,4s)-7-Azabicyclo[2.2.1]heptane-7-carbonyl)-5-(6-((dicyclopropylmethyl)amino)-4-(trifluoromethyl)pyridin-3-yl)-N-(2-hydroxy-2-methypropyl)thiazole-2-carboxamide]	97* %	0.012 µM	0.0011 µM
–	–	C[C@H](CO)NC(=O)c1nc(C(=O)N2C3CCC2CC3)c(-c2cnc(N[C@@H](C)C(F)(F)F)cc2C(F)F)s1 [Example 226, 4-((1s,4s)-7-Azabicyclo[2.2.1]heptane-7-carbonyl)-5-(4-(difluoromethyl)-6-(((1S)-2,2,2-trifluoro-1-methyl-ethyl)amino)-3-pyridyl)-N-((1R)-2-hydroxy-1-methyl-ethyl)thiazole-2-carboxamide]	94* %	0.14 µM	0.014 µM
102%	0.13 µM	C[C@H](Nc1cc(C(F)F)c(-c2sc(C(=O)N[C@@H]3CC[C@H]3O)nc2C(=O)N2CCC[C@@H]2C)cn1)C(F)(F)F (relative stereo) [Example 387, 5-(4-(Difluoromethyl)-6-(((S)-1,1,1-trifluoropropan-2-yl)amino)pyridin-3-yl)-N-(1R*,2R*)-2-hydroxycyclobutyl)-4-((S)-2-methylpyrrolidine-1-carbonyl)thiazole-2-carboxamide]	–	–	0.0099 µM
98%	0.031 µM	C[C@H](NC(=O)c1nc(C(=O)N2CC(F)(F)C[C@@H]2C)c(-c2cnc(NC(C)(C)C)cc2C(F)F)s1)C(C)(C)O [Example 257, 5-[6-(tert-Butylamino)-4-(difluoromethyl)-3-pyridyl]-4-[(2S)-4,4-difluoro-2-methyl-pyrrolidine-1-carbonyl]-N-[(1S)-2-hydroxy-1,2-dimethyl-propyl]thiazole-2-carboxamide]	–	–	0.0018 µM
–	–	C[C@H]1CC(F)(F)CN1C(=O)c1nc(C(=O)NCC(C)(C)O)sc1-c1cnc(NCC(C)(C)C(F)(F)F)cc1C(F)(F)F [Example 121, (S)-4-(4,4-Difluoro-2-methylpyrrolidine-1-carbonyl)-N-(2-hydroxy-2-methylpropyl)-5-(6-((3,3,3-trifluoro-2,2-dimethylpropyl)amino)-4-(trifluoromethyl)pyridin-3-yl)thiazole-2-carboxamide]	104* %	0.025 µM	0.00065 µM
–	–	[2H]C([2H])(NC(=O)c1nc(C(=O)N2CCC[C@@H]2C)c(-c2cnc(NC(C)(C)C)cc2C(F)(F)F)s1)C(C)(C)O [Example 181, (S)-5-(6-(tert-Butylamino)-4-(trifluoromethyl)pyridine-3-yl)-N-(2-hydroxy-2-methylpropyl-1,1-d2)-4-(2-methylpyrrolidine-1-carbonyl)thiazole-2-carboxamide]	112* %	0.0085 µM	0.0011 µM
106%	0.012 µM	C[C@H]1CCCN1C(=O)c1nc(C(=O)NCC(C)(O)C(F)(F)F)sc1-c1cnc(NC(C)(C)C)cc1C(F)(F)F (stereo partly drawn) [Example 357, 5-(6-(tert-Butylamino)-4-(trifluoromethyl)pyridin-3-yl)-4-((S)-2-methylpyrrolidine-1-carbonyl)-N-(3,3,3-trifluoro-2-hydroxy-2-methylpropyl)thiazole-2-carboxamide]	–	–	0.0012 µM

Structure (SMILES)	inhibition at 3 µM (full-length human RORγt)	IC50 (full-length human RORγt)	RORγt (FL) Reporter Assay B or C, % inhibition (value marked *) (full-length human RORγt; Conditions B or C)	IC50 (full-length human RORγt; Conditions B or C)	Kd [1]
O=C(N[C@@H]1CC[C@H]1O)c1nc(C(=O)N2C3CCC2CC3)c(-c2cnc(N[C@@H](C3CC3)C(F)(F)F)cc2C(F)F)s1 (relative stereo) [Example 443, 4-((1s,4s)-7-Azabicyclo[2.2.1]heptane-7-carbonyl)-5-(6-(((S)-1-cyclopropyl-2,2,2-trifluoroethyl)amino)-4-(difluoromethyl)pyridin-3-yl)-N-((1R*,2R*)-2-hydroxycyclobutyl)thiazole-2-carboxamide]	107%	0.016 µM	–	–	0.0022 µM
C[C@H](Nc1cc(C(F)F)c(-c2sc(C(=O)N[C@H]3CC[C@@H]3O)nc2C(=O)N2C3CCC2CC3)cn1)C(F)(F)F (relative stereo) [Example 292, 4-((1s,4s)-7-Azabicyclo[2.2.1]heptane-7-carbonyl)-5-(4-(difluoromethyl)-6-(((S)-1,1,1-trifluoropropan-2-yl)amino)pyridin-3-yl)-N-((1S*,2S*)-2-hydroxycyclobutyl)thiazole-2-carboxamide]	106%	0.04 µM	–	–	0.0061 µM
